Six substances from patent US10804000B2, “High efficiency continuous-flow production of radioisotopes” (priority 2016, dated 2020) can be followed below.

A short description of data set [1]: Pre-irradiation solubility tests of lanthanide complexes in the water capture matrix (neutron activation analysis of washes). It is filed as physicochemical. The following applies: for % Activity in wash 1: first pre-irradiation wash with 0.5 mL ultra-pure H2O, 153Sm at 103 keV, 166Ho at 81 keV; for % Activity in wash 1 / % Activity in wash 2: indicates solubility in capture matrix; for solubility in water: in words, from pre-irradiation washes; for % Activity in wash 2: second pre-irradiation wash with H2O. The method, then:
The solubility of the lanthanide complexes in the water capture matrix was determined by mixing a few milligrams of the lanthanide-containing target solid thoroughly with 0.5 mL of ultra-pure H2O then separating the solution from the solid utilizing centrifugal filter tubes (EMD Millipore). A second wash of the solid was obtained using the same procedure. The solid and the washes were submitted for neutron activation analysis in order to determine the solubility of the lanthanide containing target in H2O.
Post irradiation, the samples were left to cool for a predetermined amount of time to allow any short-lived radioisotopes to decay, before being transferred to the laboratory for treatment and analysis. The capture matrix was filtered and separated from the solid in order to separate any recoiled radiolanthanide. The solid residue and capture matrix were collected for analysis of the activity of the radiolanthanide. The pre-irradiation solubility test washes along with standards were also prepared for analysis. The samples were analyzed for radiolanthanide activity using a High Purity Germanium detector (HPGe) at the representative gamma energy of the radiolanthanide of interest.
All the samples for a particular compound were irradiated as a group, along with standards for calibration purposes and direct comparisons of activities. In samples that were not treated post irradiation by separation (e.g. as in the case of target and capture matrix) the activity of the radiolanthanide is directly related to the total concentration of the corresponding lanthanide. The count rate measured in each sample was normalized to a single point in time to account for decay during measurements. Both pre-irradiation washes were collected to give an indication of the solubility of the lanthanide complex in the capture matrix (H2O). The second wash was obtained to determine if the lanthanide activity detected in the first wash was actually due to solubility of the lanthanide containing target or due to factors such as impurities or the presence of uncomplexed lanthanide that came off in the first wash. […] Radiolanthanides that recoiled out but reformed bonds with the solid compound would appear as retained as well. […] Activity in the capture matrix may also reflect dissolution of the target matrix rather than recoil.

Data set [2] can be described thus: Irradiation of ammonium molybdate phosphate powder, 99Mo activity in washes, target and capture matrix. The source says:
Wash 1, Wash 2, and the irradiated molybdenum target were all analyzed for ^99Mo activity using gamma spectroscopy at the prominent ^99Mo peak of 141 KeV.
Post irradiation the capture matrix was separated from the irradiation target and washed an additional time to determine post irradiation solubility (wash 1).

For the substance Holmium 4-aminobenzoate [Compound 6], in data set [1], the “% Activity in wash 1” value is 7.0 ± 1.6%, the solubility in water result is listed as “soluble in water” and the “% Activity in wash 2” value came to 7.7 ± 1.7%.
Take “Samarium 8-hydroxyquinolinate [Compound 4]”: the solubility in water result in data set [1] is reported as “low”.
With ammonium molybdate phosphate [Sample 2], in data set [2] (99Mo, sample 2: irradiated in contact with water capture matrix, additional wash post irradiation), the “% Activity in wash 1” value stood at 1.3%.
Turning to “Holmium 8-hydroxyquinolinate [Compound 5]”, the solubility in water result in data set [1] is reported as “low solubility in the first wash”.
Regarding ammonium molybdate phosphate [Sample 1], the “% Activity in wash 1” value in data set [2] (99Mo, sample 1: powder irradiated 15 min at 8×10^11 n cm^−2 s^−1, contacted with water post irradiation) was <1%. Moreover, the “% Activity in wash 2” value in data set [2] (99Mo, sample 1: powder irradiated, contacted with water post irradiation) is <1%. The “99Mo activity detected in the capture matrix” value in data set [2] (sample 1, water contacted post irradiation) is “less than 1%”.
Take Samarium 4-aminobenzoate [Compound 2]: in data set [1], the “% Activity in wash 1” value turned out to be 27.3 ± 3.0%, the solubility in water result is “soluble in water” and the “% Activity in wash 2” value was found to be 26.8 ± 2.9%.
